The source of these data is ChEMBL document CHEMBL1777793, “Synthesis of biotinylated muramyl tripeptides with NOD2-stimulating activity” (Bioorg Med Chem Lett, 2011).

Activity calls are given as the source filed them. The rule behind the calls is not given here.

The experiment has as its target Nucleotide-binding oligomerization domain-containing protein 2 (Homo sapiens) (UniProt Q9HC29). Briefly: Activation of NOD2 expressed in HEK293 cells assessed as increase in IL8 secretion measured at 0.01 to 0.7 uM after 18 hrs by ELISA. Type of experiment: cell-based. (In general: An ELISA detects its analyte on a solid surface through an enzyme-linked reagent.)

Sequence of Nucleotide-binding oligomerization domain-containing protein 2 (Homo sapiens) (Q9HC29 whole entry, the tested form may be a part): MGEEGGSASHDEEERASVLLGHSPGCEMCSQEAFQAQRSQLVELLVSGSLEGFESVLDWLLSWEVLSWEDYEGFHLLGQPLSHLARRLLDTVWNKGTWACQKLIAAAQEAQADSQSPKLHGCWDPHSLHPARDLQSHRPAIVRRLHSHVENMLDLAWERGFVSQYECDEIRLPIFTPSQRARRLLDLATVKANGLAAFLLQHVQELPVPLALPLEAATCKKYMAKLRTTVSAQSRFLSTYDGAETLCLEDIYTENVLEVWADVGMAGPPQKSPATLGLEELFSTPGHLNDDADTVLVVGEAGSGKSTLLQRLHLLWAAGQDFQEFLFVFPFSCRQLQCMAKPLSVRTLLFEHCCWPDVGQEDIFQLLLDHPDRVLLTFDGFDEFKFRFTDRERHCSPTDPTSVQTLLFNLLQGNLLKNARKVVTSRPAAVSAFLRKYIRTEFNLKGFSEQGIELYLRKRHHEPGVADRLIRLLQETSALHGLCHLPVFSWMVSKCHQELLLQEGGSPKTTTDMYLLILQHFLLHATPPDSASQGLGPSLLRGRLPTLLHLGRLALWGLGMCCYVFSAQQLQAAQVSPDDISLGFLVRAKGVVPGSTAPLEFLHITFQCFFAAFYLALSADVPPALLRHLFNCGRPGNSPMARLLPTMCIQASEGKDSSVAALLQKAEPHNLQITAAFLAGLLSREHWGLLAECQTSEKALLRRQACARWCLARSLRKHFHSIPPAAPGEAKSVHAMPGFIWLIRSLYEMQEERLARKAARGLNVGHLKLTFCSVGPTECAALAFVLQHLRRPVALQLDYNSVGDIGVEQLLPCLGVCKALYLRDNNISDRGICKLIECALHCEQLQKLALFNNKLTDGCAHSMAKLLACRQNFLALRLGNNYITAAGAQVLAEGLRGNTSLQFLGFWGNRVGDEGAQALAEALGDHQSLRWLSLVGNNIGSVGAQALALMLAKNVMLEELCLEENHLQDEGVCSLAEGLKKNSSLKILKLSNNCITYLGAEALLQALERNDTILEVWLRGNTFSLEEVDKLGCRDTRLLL

As to `CC(=O)N[C@H]1C(O)O[C@H](CO)[C@@H](O)[C@@H]1O[C@H](C)C(=O)N[C@@H](C)C(=O)N[C@H](CCC(=O)N[C@@H](CCCCNC(=O)CCCC[C@@H]1SC[C@@H]2NC(=O)N[C@@H]21)C(=O)O)C(=O)O` (some centres not stated), the result was Active.

Consider `CC(=O)N[C@H]1[C@@H](OP(=O)(O)OP(=O)(O)OC[C@H]2O[C@@H](n3ccc(=O)[nH]c3=O)[C@H](O)[C@@H]2O)O[C@H](CO)[C@@H](O)[C@@H]1O[C@H](C)C(=O)N[C@@H](C)C(=O)N[C@H](CCC(=O)N[C@@H](CCC[C@@H](NC(=O)CCCC[C@@H]1SC[C@@H]2NC(=O)N[C@@H]21)C(=O)O)C(=O)O)C(=O)O`, for which the outcome was Active. With `CC(=O)N[C@H]1C(O)O[C@H](CO)[C@@H](O)[C@@H]1O[C@H](C)C(=O)N[C@@H](C)C(=O)N[C@H](CCC(=O)N[C@@H](CCCCNC(=O)CCCCCNC(=O)CCCCCNC(=O)CCCC[C@@H]1SC[C@@H]2NC(=O)N[C@@H]21)C(=O)O)C(=O)O` (some centres not stated), the result was Active. In the case of `CC(=O)N[C@H]1C(O)O[C@H](CO)[C@@H](O)[C@@H]1O[C@H](C)C(=O)N[C@@H](C)C(=O)N[C@H](CCC(=O)N[C@@H](CCC[C@@H](NC(=O)CCCC[C@@H]1SC[C@@H]2NC(=O)N[C@@H]21)C(=O)O)C(=O)O)C(=O)O` (some centres not stated) it was “inactive”; in that of `CC(=O)N[C@H]1[C@@H](OP(=O)(O)OP(=O)(O)OC[C@H]2O[C@@H](n3ccc(=O)[nH]c3=O)[C@H](O)[C@@H]2O)O[C@H](CO)[C@@H](O)[C@@H]1O[C@H](C)C(=O)N[C@@H](C)C(=O)N[C@H](CCC(=O)N[C@@H](CCCCNC(=O)CCCC[C@@H]1SC[C@@H]2NC(=O)N[C@@H]21)C(=O)O)C(=O)O`, “Active”; in that of `CC(=O)N[C@H]1[C@@H](OP(=O)(O)OP(=O)(O)OC[C@H]2O[C@@H](n3ccc(=O)[nH]c3=O)[C@H](O)[C@@H]2O)O[C@H](CO)[C@@H](O)[C@@H]1O[C@H](C)C(=O)N[C@@H](C)C(=O)N[C@H](CCC(=O)N[C@@H](CCCCNC(=O)CCCCCNC(=O)CCCCCNC(=O)CCCC[C@@H]1SC[C@@H]2NC(=O)N[C@@H]21)C(=O)O)C(=O)O`, “Active”.

Regarding `CC(=O)N[C@H]1C(O)O[C@H](CO)[C@@H](O)[C@@H]1O[C@H](C)C(=O)N[C@@H](C)C(=O)N[C@H](CCC(=O)N[C@@H](CCC[C@@H](N)C(=O)O)C(=O)O)C(=O)O` (some centres not stated), the result was inactive. The result for `CC(=O)N[C@H]1[C@@H](OP(=O)(O)OP(=O)(O)OC[C@H]2O[C@@H](n3ccc(=O)[nH]c3=O)[C@H](O)[C@@H]2O)O[C@H](CO)[C@@H](O)[C@@H]1O[C@H](C)C(=O)N[C@@H](C)C(=O)N[C@H](CCC(=O)N[C@@H](CCCCN)C(=O)O)C(=O)O` reads “Active”; that for `CC(=O)N[C@H]1[C@@H](OP(=O)(O)OP(=O)(O)OC[C@H]2O[C@@H](n3ccc(=O)[nH]c3=O)[C@H](O)[C@@H]2O)O[C@H](CO)[C@@H](O)[C@@H]1O[C@H](C)C(=O)N[C@@H](C)C(=O)N[C@H](CCC(=O)N[C@@H](CCC[C@@H](N)C(=O)O)C(=O)O)C(=O)O`, “Active”; that for `CC(=O)N[C@H]1C(O)O[C@H](CO)[C@@H](O)[C@@H]1O[C@H](C)C(=O)N[C@@H](C)C(=O)N[C@H](CCC(=O)O)C(N)=O` (some centres not stated), “Active”. In the case of `CC(=O)N[C@H]1C(O)O[C@H](CO)[C@@H](O)[C@@H]1O[C@H](C)C(=O)N[C@@H](C)C(=O)N[C@H](CCC(=O)N[C@@H](CCCCN)C(=O)O)C(=O)O` (some centres not stated), the outcome was Active. The result for `CC(=O)N[C@H]1C(O)O[C@H](COC(=O)CCCCCNC(=O)CCCCCNC(=O)CCCCCNC(=O)CCCC[C@@H]2SC[C@@H]3NC(=O)N[C@@H]32)[C@@H](O)[C@@H]1O[C@H](C)C(=O)N[C@@H](C)C(=O)N[C@H](CCC(=O)O)C(N)=O` (some centres not stated) reads “Active”.
